The target in assay [1] is Cytochrome P450 2C9 (Homo sapiens, UniProt P11712). Particulars: Potency.
The target of assay [2] is Cytochrome P450 2D6 (Homo sapiens, UniProt P10635). Kind of assay: qHTS Assay for Inhibitors and Substrates of Cytochrome P450 2D6. [Related pubchem assays: 410 ]. The format is ADME. Conditions: read-out: Potency.
Assay [3] addresses Cytochrome P450 3A4 (Homo sapiens, UniProt P08684). Conditions: Potency.
Assay [4] can be described thus: Counterscreen for IDE inhibitors: Luminescence-based cell-based high throughput dose response assay to identify compounds that are cytotoxic to HEK cells. [Related pubchem assays: 434962 (Primary screen (IDE inhibitors in singlicate)), 449730 (Counterscreen (Cytotoxicity in triplicate)), 435028 (Confirmation (IDE inhibitors in triplicate)) …. Conditions: HEK293. The format is functional.

For assay [5], the target named is T1, Insulin-degrading enzyme (Homo sapiens, UniProt P14735).
T1 sequence (P14735 whole entry): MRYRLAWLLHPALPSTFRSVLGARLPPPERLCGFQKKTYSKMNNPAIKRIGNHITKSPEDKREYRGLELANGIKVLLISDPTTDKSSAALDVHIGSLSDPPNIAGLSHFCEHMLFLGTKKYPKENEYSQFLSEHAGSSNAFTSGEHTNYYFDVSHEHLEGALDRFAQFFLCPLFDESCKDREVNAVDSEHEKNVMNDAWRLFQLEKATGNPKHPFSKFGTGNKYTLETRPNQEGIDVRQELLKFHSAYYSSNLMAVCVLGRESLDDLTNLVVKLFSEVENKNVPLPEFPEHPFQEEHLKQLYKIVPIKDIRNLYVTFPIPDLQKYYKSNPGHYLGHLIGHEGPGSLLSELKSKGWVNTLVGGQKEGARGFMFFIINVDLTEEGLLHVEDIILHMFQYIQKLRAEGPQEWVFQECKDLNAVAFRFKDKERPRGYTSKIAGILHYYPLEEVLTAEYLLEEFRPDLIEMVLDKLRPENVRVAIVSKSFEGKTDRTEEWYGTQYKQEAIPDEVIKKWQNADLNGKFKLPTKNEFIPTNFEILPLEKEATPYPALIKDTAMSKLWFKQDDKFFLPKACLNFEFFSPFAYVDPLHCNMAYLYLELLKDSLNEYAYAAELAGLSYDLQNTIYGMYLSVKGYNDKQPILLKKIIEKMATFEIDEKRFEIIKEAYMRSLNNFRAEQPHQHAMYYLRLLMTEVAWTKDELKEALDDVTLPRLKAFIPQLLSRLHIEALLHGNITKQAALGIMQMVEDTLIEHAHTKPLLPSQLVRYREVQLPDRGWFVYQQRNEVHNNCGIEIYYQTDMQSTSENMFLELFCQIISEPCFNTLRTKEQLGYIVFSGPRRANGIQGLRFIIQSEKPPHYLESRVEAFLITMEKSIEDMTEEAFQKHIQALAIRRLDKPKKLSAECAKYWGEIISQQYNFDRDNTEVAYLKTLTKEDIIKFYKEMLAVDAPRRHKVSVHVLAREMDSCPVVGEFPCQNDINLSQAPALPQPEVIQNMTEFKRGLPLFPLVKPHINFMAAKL
Put plainly: Dose Response: Fluorescence polarization-based cell-based high throughput dose response assay for inhibitors of insulin-degrading enzyme (IDE). [Related pubchem assays: 434962 (Primary screen (IDE inhibitors in singlicate)), 449730 (Counterscreen (Cytotoxicity in triplicate)), 435028 (Confirmation (IDE inhibitors in triplicate)), 434984 (Summary …. It is filed as functional. For orientation: Polarisation of emitted light reports the rotation of a fluorescent probe.

Assay [6] can be described thus: mitochondrial function rescue without frataxin homolog – Friedreich's ataxia, plus single-dose screen, dose response (AID 1465).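 Also: yeast depleted of Yfh1p frataxin homolog grown on glycerol needing respiration; WST-1 tetrazolium dye reduction as measure of cellular dehydrogenase metabolic activity.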 It is filed as functional.
For assay [7], the target named is T2, Leucine aminopeptidase (Plasmodium falciparum 3D7, UniProt Q8IL11).
T2 sequence (Q8IL11 whole entry): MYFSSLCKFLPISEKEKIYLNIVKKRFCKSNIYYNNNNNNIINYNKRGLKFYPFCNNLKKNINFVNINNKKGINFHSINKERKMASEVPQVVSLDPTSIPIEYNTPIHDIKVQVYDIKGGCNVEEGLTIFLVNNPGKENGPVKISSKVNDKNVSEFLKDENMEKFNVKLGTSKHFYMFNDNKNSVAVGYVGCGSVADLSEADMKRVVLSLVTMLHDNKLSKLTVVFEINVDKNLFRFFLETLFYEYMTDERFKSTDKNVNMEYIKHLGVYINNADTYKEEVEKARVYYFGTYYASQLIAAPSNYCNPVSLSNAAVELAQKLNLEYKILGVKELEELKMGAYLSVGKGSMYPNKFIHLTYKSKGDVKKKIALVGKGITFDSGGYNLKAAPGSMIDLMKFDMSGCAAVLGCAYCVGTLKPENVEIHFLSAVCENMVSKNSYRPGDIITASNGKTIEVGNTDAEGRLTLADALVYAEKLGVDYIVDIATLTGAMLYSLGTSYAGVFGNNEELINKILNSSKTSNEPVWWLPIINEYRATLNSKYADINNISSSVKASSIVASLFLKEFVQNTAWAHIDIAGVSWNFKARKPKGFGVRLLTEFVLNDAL
Put plainly: P. falciparum M17LAP inhibitors, primary screen, biochemical, fluorogenic H-Leu-NHMec substrate, 1536-well (AID 1619). It is filed as functional.

Assay [8] deals with T3, CAAX prenyl protease 2 (Homo sapiens, UniProt Q9Y256).
T3 sequence (Q9Y256 whole entry): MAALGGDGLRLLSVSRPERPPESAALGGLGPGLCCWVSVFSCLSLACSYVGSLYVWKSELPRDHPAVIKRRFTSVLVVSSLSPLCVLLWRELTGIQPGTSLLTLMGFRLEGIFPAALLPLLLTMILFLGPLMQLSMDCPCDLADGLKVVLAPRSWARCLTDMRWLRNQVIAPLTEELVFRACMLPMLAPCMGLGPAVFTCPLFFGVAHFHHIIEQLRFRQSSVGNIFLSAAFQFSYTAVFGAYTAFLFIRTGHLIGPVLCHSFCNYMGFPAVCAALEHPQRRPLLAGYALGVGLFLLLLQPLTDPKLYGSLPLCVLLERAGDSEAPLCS
Put plainly: inhibition of Ras-converting CAAX protease Rce1 – biochemical, yeast membranes, quenched-peptide fluorescence, cherry-pick, dose response (AID 588849).

Assay [9] has as its target CAAX prenyl protease 2 (Saccharomyces cerevisiae S288c, UniProt Q03530). The format is biochemical.
In assay [10] the target is Trypsin (Sus scrofa, UniProt P00761). Kind of assay: trypsin protease activity blockade – biochemical, quenched peptide fluorescence, cherry-pick, selectivity assay for Rce1 protease inhibitor project, dose response (AID 488789).
Assay [11] addresses Peroxisome proliferator-activated receptor gamma/Nuclear receptor corepressor 2 (Homo sapiens, UniProt P37231+Q9Y618). It is filed as functional.
Assay [12] addresses Peroxisome proliferator-activated receptor gamma/Nuclear receptor coactivator 1 (Homo sapiens, UniProt P37231). Put plainly: TR-FRET dose response biochemical High Throughput Screening assay for agonists of the steroid receptor coactivator 1 (SRC-1) recruitment by the peroxisome proliferator-activated receptor gamma (PPAR gamma): non-selective agonists. [Related pubchem assays (depositor defined):AID1300, AID1808, AID504735, AID631]. The format is protein assay.

Assay [13] deals with Peroxisome proliferator-activated receptor gamma/Nuclear receptor coactivator 3 (Homo sapiens, UniProt P37231). Put plainly: TR-FRET dose response biochemical High Throughput Screening assay for agonists of the steroid receptor coactivator 3 (SRC-3) recruitment by the peroxisome proliferator-activated receptor gamma (PPAR gamma): non-selective agonists. [Related pubchem assays: 1301 (Confirmation screen.), 1048 (Primary screen.)]. The format is functional.

Assay [14] deals with Photoreceptor-specific nuclear receptor (Homo sapiens, UniProt Q9Y5X4). It is filed as functional.
Assay [15] concerns the target Peroxisome proliferator-activated receptor gamma/Nuclear receptor coactivator 2 (Homo sapiens, UniProt P37231). Kind of assay: TR-FRET dose response biochemical High Throughput Screening assay for agonists of the steroid receptor coactivator 2 (SRC-2) recruitment by the peroxisome proliferator-activated receptor gamma (PPAR gamma): non-selective agonists. [Related pubchem assays: 1297, 1032 ]. The format is functional.

Assay [16] deals with T4, Voltage-gated N-type calcium channel alpha-1B subunit/Amyloid beta A4 precursor protein-binding family A member 1 (Homo sapiens, UniProt Q00975+Q02410). It is filed as protein assay.
T4 sequence (Q00975 whole entry): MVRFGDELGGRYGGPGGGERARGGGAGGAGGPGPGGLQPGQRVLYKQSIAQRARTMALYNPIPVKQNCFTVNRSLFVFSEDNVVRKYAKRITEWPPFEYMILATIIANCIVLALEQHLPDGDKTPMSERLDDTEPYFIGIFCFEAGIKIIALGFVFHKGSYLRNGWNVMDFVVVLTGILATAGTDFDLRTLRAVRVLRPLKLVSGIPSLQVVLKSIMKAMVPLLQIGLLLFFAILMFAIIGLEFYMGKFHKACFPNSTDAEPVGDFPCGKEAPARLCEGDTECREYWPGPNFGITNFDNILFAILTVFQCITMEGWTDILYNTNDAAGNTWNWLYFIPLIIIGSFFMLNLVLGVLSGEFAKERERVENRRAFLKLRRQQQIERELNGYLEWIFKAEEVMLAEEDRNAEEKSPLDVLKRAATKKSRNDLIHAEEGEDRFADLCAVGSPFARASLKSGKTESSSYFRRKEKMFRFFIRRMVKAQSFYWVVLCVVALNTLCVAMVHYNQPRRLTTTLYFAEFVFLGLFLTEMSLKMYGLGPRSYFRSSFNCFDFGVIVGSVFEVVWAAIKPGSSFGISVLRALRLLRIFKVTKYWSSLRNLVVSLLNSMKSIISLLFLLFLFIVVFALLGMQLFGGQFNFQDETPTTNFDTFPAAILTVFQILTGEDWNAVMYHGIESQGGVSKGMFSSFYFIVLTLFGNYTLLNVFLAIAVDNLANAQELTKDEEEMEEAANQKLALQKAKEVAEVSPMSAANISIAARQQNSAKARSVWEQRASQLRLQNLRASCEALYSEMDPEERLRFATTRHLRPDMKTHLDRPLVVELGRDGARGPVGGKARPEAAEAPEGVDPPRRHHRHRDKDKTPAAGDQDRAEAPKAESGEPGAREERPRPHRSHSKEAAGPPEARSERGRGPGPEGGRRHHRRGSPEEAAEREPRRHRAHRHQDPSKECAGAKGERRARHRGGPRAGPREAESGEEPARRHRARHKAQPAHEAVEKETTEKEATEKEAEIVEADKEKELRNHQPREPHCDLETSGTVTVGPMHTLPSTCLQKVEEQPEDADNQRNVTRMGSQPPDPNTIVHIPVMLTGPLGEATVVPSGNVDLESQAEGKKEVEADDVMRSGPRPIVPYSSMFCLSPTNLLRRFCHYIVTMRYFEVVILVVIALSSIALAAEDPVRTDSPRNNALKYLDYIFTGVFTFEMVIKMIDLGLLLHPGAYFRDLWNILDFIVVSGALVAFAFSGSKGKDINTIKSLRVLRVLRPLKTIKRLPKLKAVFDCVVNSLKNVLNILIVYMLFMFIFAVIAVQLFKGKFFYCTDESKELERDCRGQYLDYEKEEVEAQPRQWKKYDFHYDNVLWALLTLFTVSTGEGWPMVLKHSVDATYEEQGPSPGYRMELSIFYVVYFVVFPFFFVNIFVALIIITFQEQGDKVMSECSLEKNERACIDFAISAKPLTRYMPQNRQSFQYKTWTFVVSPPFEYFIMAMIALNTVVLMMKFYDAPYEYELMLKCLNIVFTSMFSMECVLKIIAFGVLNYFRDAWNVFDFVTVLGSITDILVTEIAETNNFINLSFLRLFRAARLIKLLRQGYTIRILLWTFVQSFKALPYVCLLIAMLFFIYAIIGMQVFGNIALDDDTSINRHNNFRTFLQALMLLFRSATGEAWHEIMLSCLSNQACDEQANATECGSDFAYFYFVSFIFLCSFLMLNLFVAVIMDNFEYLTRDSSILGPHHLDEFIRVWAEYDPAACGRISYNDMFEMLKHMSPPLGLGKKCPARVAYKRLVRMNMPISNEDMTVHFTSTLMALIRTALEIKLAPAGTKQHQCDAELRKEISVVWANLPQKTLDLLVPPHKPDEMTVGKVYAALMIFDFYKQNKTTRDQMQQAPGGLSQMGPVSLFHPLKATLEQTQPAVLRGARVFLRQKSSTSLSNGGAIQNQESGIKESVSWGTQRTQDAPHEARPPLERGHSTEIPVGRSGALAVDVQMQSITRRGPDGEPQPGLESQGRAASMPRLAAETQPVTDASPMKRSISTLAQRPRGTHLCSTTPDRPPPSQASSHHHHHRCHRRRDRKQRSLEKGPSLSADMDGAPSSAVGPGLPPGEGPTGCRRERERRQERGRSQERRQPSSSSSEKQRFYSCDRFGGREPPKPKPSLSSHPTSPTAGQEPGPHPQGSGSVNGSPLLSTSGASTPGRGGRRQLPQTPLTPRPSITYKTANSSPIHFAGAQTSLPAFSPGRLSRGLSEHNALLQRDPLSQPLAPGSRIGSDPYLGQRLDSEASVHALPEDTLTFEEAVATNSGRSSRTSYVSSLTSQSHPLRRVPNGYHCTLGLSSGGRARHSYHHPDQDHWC
T4 sequence (Q02410 whole entry): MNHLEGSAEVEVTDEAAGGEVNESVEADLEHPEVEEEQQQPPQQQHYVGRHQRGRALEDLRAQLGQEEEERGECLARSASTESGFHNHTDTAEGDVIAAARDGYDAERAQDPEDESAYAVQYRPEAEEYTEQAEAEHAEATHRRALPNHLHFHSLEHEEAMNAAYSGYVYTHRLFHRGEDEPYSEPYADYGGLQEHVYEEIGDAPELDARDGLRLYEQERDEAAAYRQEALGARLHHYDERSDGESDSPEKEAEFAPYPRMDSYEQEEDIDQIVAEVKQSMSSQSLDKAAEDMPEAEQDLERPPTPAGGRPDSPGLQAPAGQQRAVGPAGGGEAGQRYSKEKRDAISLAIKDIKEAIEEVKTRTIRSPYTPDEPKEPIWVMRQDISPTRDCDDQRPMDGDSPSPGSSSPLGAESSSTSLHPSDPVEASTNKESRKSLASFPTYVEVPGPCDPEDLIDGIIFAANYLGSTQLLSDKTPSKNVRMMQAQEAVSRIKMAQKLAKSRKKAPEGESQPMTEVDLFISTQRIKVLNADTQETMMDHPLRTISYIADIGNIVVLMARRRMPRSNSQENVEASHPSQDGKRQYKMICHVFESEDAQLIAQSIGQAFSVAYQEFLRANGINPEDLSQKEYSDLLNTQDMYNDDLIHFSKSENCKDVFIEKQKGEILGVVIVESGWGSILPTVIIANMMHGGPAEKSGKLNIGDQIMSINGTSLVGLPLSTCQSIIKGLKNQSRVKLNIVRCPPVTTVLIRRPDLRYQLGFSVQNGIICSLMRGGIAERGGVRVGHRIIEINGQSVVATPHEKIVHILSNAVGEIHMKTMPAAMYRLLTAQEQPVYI
Assay [17] has as its target Induced myeloid leukemia cell differentiation protein Mcl-1 (Homo sapiens, UniProt Q07820). It is filed as functional.
The target of assay [18] is T4, Voltage-gated N-type calcium channel alpha-1B subunit/Amyloid beta A4 precursor protein-binding family A member 1. The format is protein assay. The source holds these as a separate data set.
Assay [19] is described as follows: A Cell Based Secondary Assay To Explore Cytotoxicity of Compounds that Sensitize Mycobacterium Tuberculosis to Beta-Lactam Antibiotics. It is filed as functional.
Assay [20] deals with T5, Corticotropin-releasing factor receptor 2/Corticotropin-releasing factor-binding protein (Homo sapiens, UniProt P24387+Q13324).
T5 sequence (Q13324 whole entry): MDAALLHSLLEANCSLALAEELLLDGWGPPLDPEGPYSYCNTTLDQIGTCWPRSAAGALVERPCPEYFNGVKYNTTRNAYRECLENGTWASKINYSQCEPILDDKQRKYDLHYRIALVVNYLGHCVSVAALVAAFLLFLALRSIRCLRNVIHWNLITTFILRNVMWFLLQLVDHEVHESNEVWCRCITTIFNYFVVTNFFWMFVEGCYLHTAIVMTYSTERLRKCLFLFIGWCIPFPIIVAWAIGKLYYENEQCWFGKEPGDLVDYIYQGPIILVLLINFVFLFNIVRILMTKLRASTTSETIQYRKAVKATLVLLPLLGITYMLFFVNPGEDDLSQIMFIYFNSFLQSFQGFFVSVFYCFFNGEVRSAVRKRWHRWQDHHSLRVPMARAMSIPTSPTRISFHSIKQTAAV
T5 sequence (P24387 whole entry): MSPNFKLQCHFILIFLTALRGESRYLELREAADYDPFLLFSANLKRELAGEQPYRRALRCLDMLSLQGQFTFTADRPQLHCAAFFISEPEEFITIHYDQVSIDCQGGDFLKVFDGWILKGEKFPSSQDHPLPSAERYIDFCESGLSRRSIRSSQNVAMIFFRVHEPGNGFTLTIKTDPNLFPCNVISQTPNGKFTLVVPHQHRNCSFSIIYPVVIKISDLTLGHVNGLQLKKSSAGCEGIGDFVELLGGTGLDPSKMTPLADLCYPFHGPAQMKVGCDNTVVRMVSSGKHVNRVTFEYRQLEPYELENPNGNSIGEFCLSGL
Kind of assay: activators of CRF receptor 2 with binding protein – uHTS hits, confirmation (AID 602473). It is filed as functional. Particulars: read-out: EC50_Mean.

In assay [21] the target is Neurotensin receptor type 1 (Homo sapiens, UniProt P30989). The format is functional.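 Also: Image-based confirmatory dose-response assay measuring agonist activity at NTR1; NTR1-expressing U2OS osteosarcoma cells imaged for beta-arrestin GFP spot formation; agonist potency where compounds increase beta-arrestin recruitment.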
Assay [22] addresses Hexokinase (Trypanosoma brucei, UniProt Q38C41). Put plainly: Confirmation assay for inhibitors of Trypanosoma brucei hexokinase 1-Analogue-first series. [Related pubchem assays (depositor defined):AID1430, AID1632, AID2516, AID2560, AID2579, AID2600, AID449725, AID492951]. It is filed as functional.

Calls of active or inactive are those of the source.

As a reminder, the IC50 is the point on the concentration scale where inhibition reaches its midpoint. Usually CC50 stands for the concentration that lowers cell viability or growth by half.

Hexokinase, sequence (Q38C41 whole entry): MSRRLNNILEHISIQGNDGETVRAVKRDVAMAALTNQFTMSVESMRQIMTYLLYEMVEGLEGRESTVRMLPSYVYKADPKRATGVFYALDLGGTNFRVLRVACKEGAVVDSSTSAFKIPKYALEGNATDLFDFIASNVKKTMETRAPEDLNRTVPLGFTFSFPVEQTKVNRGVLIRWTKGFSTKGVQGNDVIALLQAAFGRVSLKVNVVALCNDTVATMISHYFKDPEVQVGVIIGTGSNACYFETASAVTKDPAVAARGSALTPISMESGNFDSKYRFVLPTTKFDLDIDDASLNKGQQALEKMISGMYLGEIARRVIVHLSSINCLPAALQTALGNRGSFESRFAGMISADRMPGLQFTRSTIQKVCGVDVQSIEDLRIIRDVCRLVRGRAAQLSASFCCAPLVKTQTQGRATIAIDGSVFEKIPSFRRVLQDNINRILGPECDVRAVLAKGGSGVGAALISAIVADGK
CAAX prenyl protease 2 (Saccharomyces cerevisiae S288c, UniProt Q03530), sequence (Q03530 whole entry): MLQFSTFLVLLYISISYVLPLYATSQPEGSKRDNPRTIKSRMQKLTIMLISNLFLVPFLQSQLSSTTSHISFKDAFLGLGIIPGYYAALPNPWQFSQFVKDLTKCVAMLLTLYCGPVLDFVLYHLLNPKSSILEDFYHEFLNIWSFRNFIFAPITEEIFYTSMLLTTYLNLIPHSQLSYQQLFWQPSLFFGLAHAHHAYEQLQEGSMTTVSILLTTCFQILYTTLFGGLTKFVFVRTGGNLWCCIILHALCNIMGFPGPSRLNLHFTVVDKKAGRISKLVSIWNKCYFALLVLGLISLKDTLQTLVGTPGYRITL
Cytochrome P450 2C9, sequence (P11712 whole entry): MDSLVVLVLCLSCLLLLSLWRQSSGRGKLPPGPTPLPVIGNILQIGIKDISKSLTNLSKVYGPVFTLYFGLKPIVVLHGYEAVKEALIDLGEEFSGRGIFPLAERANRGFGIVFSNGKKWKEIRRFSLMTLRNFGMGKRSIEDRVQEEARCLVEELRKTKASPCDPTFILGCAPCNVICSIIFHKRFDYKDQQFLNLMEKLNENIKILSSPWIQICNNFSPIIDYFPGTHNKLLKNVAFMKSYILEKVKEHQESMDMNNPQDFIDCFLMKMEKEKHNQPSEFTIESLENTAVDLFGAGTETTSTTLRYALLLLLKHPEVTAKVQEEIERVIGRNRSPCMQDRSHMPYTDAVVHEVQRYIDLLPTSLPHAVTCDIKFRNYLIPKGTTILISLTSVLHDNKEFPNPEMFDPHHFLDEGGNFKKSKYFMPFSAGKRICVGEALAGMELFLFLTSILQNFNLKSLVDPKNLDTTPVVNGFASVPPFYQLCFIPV
Cytochrome P450 3A4, sequence (P08684 whole entry): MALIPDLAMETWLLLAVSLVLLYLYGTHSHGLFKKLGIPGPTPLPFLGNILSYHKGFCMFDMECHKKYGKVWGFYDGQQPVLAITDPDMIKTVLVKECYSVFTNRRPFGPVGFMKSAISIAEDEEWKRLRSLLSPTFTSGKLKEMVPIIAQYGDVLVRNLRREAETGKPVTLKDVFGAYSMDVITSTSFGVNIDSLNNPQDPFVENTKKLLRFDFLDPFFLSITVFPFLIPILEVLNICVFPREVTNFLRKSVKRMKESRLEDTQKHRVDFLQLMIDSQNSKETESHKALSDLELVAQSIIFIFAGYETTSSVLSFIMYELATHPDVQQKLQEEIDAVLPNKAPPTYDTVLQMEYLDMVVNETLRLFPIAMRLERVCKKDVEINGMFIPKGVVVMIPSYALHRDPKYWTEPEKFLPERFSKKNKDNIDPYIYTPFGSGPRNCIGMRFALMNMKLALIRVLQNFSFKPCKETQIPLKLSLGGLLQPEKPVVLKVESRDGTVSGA

Regarding `Nc1c(S(=O)(=O)O)cc(Nc2ccc(Nc3nc(Cl)nc(Nc4ccc(S(=O)(=O)O)cc4)n3)c(S(=O)(=O)O)c2)c2c1C(=O)c1ccccc1C2=O`, the AC50 is 39.8 µM (inconclusive) in assay [1], 39.8 µM (inconclusive) in assay [2] and 25.1 µM (inconclusive) in [3].
Regarding `CCN(CC)c1ccc(/C=C(/C#N)C(=O)NC(C)C)o1`, the IC50 in assay [4] was > 55.7 µM (not active); in [5], 13.2 µM (not active); in assay [7] it was 65.8 µM (active). Also, in assay [6], the EC50 is > 100 µM (active).
For the compound `Cc1cc(C)cc(Nc2ccc(C(=O)O)cc2N)c1`, the AC50 in [8] is 3.8 µM (active); in assay [9] it was 84.5 µM (active); in [10] it was 2.73 µM (active).
In the case of `O=C(Nc1nc(-c2cccs2)c(C(=O)C(F)(F)F)s1)c1ccco1`, the IC50 in [11] was 2.22 µM (active); in [14], > 39.8 µM (not active). For the same compound, the EC50 in [12] was > 79.4 µM (inactive); in assay [13], > 79.4 µM (not active); in assay [15] it was 50 µM (not active).
On to `Cc1ccc(-c2nc3c(c(=O)[nH]c(=O)n3Cc3ccccc3)n2C)o1`, for which the IC50 in [16] is 6.07 µM (active); in assay [17], 4.71 µM (active); in [18], 6.21 µM (active).
Consider `CCOC(=O)c1sc(Nc2nc3c(OC)cccc3s2)cc1C`, for which, in assay [19], the CC50 is > 40 µM (active).
Take `CC1(C)CC(=O)C(=Cc2cn(-c3ccccc3)nc2-c2ccc(Cl)cc2)C(=O)C1`: the EC50 in assay [20] was > 53 µM (inactive); in [21], 35.3 µM (inactive).
For the compound `O=C(O)c1ccccc1NC(=O)c1ccccc1C(=O)O`, in [22], the IC50 is > 25 µM (inactive).
As to `COc1ccc(C(=O)NC(CC(=O)O)c2ccccc2)cc1` (centres undefined), in assay [22], the IC50 is > 25 µM (inactive).
On to `Cc1ccc(C(C)C)c(OCc2ccc(C(=O)N/N=C/c3ccc(C(=O)O)cc3)cc2)c1`, for which, in assay [19], the CC50 was > 40 µM (active).

The record behind these values is ChEMBL document CHEMBL1201862, “PubChem BioAssay data set” (2004).
